The results in this text go back to US10801035B2, “Plants having increased tolerance to herbicides” (BASF SE, priority 2011, dated 2020).

Test [1] addresses T1, Arabidopsis HPPD variant M335H (Arabidopsis thaliana, UniProt P93836, M335H).
T1 construct: His6 (N); made in house; host or cells: E. coli BL21 (DE3)
The test is described as follows: HPPD activity assay, Arabidopsis HPPD mutant M335H. It counts as biochemical. As to conditions: normalized on wildtype. On the procedure: (§1) HPPD produces homogentisic acid and CO2 from 4-hydroxyphenylpyruvate (4-HPP) and O2. The activity assay for HPPD is based on the analysis of homogentisic acid by reversed phase HPLC.
(§2) The assay mixture can contain 150 mM potassium phosphate buffer pH 7.0, 50 mM L-ascorbic acid, 1 μM FeSO4 and 7 μg of purified enzyme in a total volume of 1 ml. Inhibitors are dissolved in DMSO (dimethylsulfoxide) to a concentration of 20 mM or 0.5 mM, respectively. From this stock solution serial five-fold dilutions are prepared in DMSO, which are used in the assay. The respective inhibitor solution accounts for 1% of the assay volume. Thus, final inhibitor concentrations range from 200 μM to 2.5 nM or from 5 μM to 63 pM, respectively. After a preincubation of 30 min the reaction is started by adding 4-HPP to a final concentration of 0.1 mM. […]
(§3) Inhibitors are dissolved in DMSO (dimethylsulfoxide) to a concentration of 0.5 mM. […] IC50 values are calculated using non-linear regression.
(§4) Purified, mutant HPPD enzymes are obtained by the methods described above. […] Apparent michaelis constants (Km) and maximal reaction velocities (Vmax) are calculated by non-linear regression with the software GraphPad Prism 5 (GraphPad Software, La Jolla, USA) using a substrate inhibition model. […] Weighted means (by standard error) of Km and […] values are calculated from at least three independent experiments. […]

The target in test [2] is T2, Hordeum HPPD variant L334E (Hordeum vulgare, UniProt O48604, A164G/L334E/R146V/R147D/R148G).
T2 construct: His6; made in house; host or cells: E. coli BL21 (DE3)
As to the kind of experiment: HPPD activity assay, Hordeum HPPD mutant L334E. It counts as biochemical. The conditions noted are these: normalized on wildtype. On the procedure:
as §1, §2, §3, §4

The subject of another test is Wild type soybean plants. The test is described as follows: Greenhouse herbicide spray test, non-transformed soybean cuttings. It counts as in vivo, Glycine max. As to conditions: Wild type (no transgene), two weeks after herbicide treatment. How it is done:
Transgenic plants expressing heterologous HPPD or HST enzymes are tested for tolerance against coumarone-derivative herbicides in greenhouse experiments.
For post emergence treatment, the test plants are first grown to a height of 3 to 15 cm, depending on the plant habit, and only then treated with the herbicides. For this purpose, the test plants are either sown directly and grown in the same containers, or they are first grown separately and transplanted into the test containers a few days prior to treatment.
For testing of T0 plants, cuttings can be used. In the case of soybean plants, an optimal shoot for cutting is about 7.5 to 10 cm tall, with at least two nodes present. Each cutting is taken from the original transformant (mother plant) and dipped into rooting hormone powder (indole-3-butyric acid, IBA). The cutting is then placed in oasis wedges inside a bio-dome. Wild type cuttings are also taken simultaneously to serve as controls. The cuttings are kept in the biodome for 5-7 days and then transplanted to pots and then acclimated in the growth chamber for two more days. Subsequently, the cuttings are transferred to the greenhouse, acclimated for approximately 4 days, and then subjected to spray tests as indicated.
Depending on the species, the plants are kept at 10-25° C. or 20-35° C. The test period extends over 3 weeks. During this time, the plants are tended and their response to the individual treatments is evaluated. Herbicide injury evaluations are taken at 2 and 3 weeks after treatment. Plant injury is rated on a scale of 0 to 9, 0 being no injury and 9 being complete death. Tolerance to coumarone-derivative herbicides can also be assessed in Arabidopsis. In this case transgenic Arabidopsis thaliana plants are assayed for improved tolerance to coumarone-derivative herbicides in 48-well plates. […] Seven to ten days after seeding growth inhibition is evaluated by comparison to wild type plants. Tolerance factor is calculated by dividing the plant growth IC50 value of transgenic plants containing a HPPD and/or HST sequence by that of wildtype plants. […]

T2 sequence (O48604 whole entry R146V/R147D/R148G/A164G/L334E): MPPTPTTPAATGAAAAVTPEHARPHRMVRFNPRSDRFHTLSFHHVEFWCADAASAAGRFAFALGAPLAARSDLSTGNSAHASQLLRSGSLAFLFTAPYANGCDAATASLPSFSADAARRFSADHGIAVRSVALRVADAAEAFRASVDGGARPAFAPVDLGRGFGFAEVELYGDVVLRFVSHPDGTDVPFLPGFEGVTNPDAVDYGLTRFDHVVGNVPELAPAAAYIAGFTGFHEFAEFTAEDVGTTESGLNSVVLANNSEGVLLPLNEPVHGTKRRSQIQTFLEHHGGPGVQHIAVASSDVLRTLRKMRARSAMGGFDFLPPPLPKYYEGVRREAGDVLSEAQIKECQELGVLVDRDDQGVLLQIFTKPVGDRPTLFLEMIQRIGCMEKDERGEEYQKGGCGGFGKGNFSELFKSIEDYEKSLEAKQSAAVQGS
T1 sequence (P93836 whole entry M335H): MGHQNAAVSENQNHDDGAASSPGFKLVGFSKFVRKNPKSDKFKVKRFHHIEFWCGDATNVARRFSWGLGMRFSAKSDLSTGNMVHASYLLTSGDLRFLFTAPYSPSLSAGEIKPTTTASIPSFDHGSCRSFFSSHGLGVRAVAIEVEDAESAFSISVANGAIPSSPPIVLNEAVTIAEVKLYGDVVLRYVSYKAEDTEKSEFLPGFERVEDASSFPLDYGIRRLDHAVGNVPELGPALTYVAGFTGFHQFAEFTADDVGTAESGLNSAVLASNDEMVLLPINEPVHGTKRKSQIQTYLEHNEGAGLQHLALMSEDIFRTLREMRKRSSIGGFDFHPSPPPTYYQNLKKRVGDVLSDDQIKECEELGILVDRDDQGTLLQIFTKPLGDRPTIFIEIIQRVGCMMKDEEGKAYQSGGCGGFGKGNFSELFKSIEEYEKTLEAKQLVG

As to `O=S1(=O)C(c2c(Cl)cc(Cl)nc2Cl)=C(O)c2ncccc2N1CC(F)F` [Inhibitor 2, 1-(2,2-difluoroethyl)-2,2-dioxo-3-(2,4,6-trichloro-3-pyridyl)pyrido[3,2-c]thiazin-4-ol], the “Normalized tolerance index (TI)” value in test [1] is 0.2; in test [2], 2.2.
Turning to `CC1=NOC(c2c(Cl)ccc(C3=C(O)c4ncccc4N(CC(F)F)S3(=O)=O)c2Cl)C1` (stereo not drawn) [Inhibitor 1, 3-[2,4-dichloro-3-(3-methyl-4,5-dihydroisoxazol-5-yl)phenyl]-1-(2,2-difluoroethyl)-2,2-dioxo-pyrido[3,2-c]thiazin-4-ol], the “Normalized tolerance index (TI)” value in test [2] is 3.8. Moreover, the Injury evaluation in the test with Wild type soybean plants (dose 62 g/ha) amounted to 26; in the test with Wild type soybean plants (dose 125 g/ha), 44; with Wild type soybean plants (dose 250 g/ha) it was 68.
